According to PubChem BioAssay (NCI):
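Here, GI50 denotes the concentration required for 50% inhibition of growth. TGI denotes the concentration required for complete inhibition of growth.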

Tests used:
Experiment in all cases: growth of human tumour cells (NCI), 384-well format; in the data active means GI50 below about 0.43 µM; inactive means the rest
[1] = tested on: MDA-MB-231 breast
[2] = tested on: NCI-H460 NSCLC
[3] = tested on: EKVX NSCLC
[4] = tested on: SF-539 CNS
[5] = tested on: IGROV1 ovarian
[6] = tested on: TK-10 renal
[7] = tested on: KM12 colon
[8] = tested on: NCI-H226 lung
[9] = tested on: HOP-62 NSCLC
[10] = tested on: SNB-75 CNS
[11] = tested on: NCI/ADR-RES ovarian
[12] = tested on: COLO 205 colon
[13] = tested on: SF-295 CNS
[14] = tested on: MCF7 breast
[15] = tested on: OVCAR-4 ovarian
[16] = tested on: UACC-257 melanoma
[17] = tested on: T-47D breast
[18] = tested on: A498 renal
[19] = tested on: SNB-19 CNS
[20] = tested on: HCT-15 colon
[21] = tested on: UACC-62 melanoma
[22] = tested on: SW-620 colon
[23] = tested on: HS 578T breast
[24] = tested on: MDA-MB-468 breast
[25] = tested on: PC-3 prostate
[26] = tested on: U251 glioblastoma
[27] = tested on: SR leukemia
[28] = tested on: OVCAR-5 ovarian
[29] = tested on: HT29 colon
[30] = tested on: HL-60(TB) leukemia
[31] = tested on: SK-MEL-5 melanoma
[32] = tested on: NCI-H322M lung
[33] = tested on: NCI-H23 lung
[34] = tested on: DU-145 prostate
[35] = tested on: CCRF-CEM leukemia
[36] = tested on: A549 NSCLC
[37] = tested on: M14 melanoma
[38] = tested on: RXF 393 renal
[39] = tested on: 786-0 renal
[40] = tested on: SK-MEL-2 melanoma
[41] = tested on: HOP-92 NSCLC
[42] = tested on: SK-MEL-28 melanoma
[43] = tested on: BT-549 breast
[44] = tested on: K-562 leukemia
[45] = tested on: RPMI-8226 leukemia
[46] = tested on: SK-OV-3 ovarian
[47] = tested on: MOLT-4 leukemia
[48] = tested on: OVCAR-3 ovarian
[49] = tested on: MDA-MB-435 melanoma
[50] = tested on: HCT-116 colon
[51] = tested on: LOX IMVI melanoma
[52] = tested on: SN12C renal
[53] = tested on: MALME-3M melanoma
[54] = tested on: SF-268 CNS
[55] = tested on: CAKI-1 renal
[56] = tested on: NCI-H522 lung
[57] = tested on: UO-31 renal
[58] = tested on: ACHN renal

Cn1cc(-c2ccc3nnc(Sc4ccc5ncccc5c4)n3n2)cn1
inactive: GI50 [1] > 100 µM | GI50 [2] > 100 µM | GI50 [3] > 100 µM | GI50 [4] > 100 µM | GI50 [5] > 100 µM | GI50 [6] > 100 µM | GI50 [7] > 100 µM | GI50 [8] > 100 µM | GI50 [9] > 100 µM | GI50 [10] > 100 µM | GI50 [11] > 100 µM | GI50 [12] > 100 µM | GI50 [13] 46.3 µM | GI50 [14] > 100 µM | GI50 [15] > 100 µM | GI50 [16] > 100 µM | GI50 [17] > 100 µM | GI50 [18] > 100 µM | GI50 [19] > 100 µM | GI50 [20] > 100 µM | GI50 [21] > 100 µM | GI50 [22] > 100 µM | GI50 [23] 61.6 µM | GI50 [24] 13.8 µM | GI50 [25] > 100 µM | GI50 [26] > 100 µM | GI50 [27] 27.2 µM | GI50 [28] > 100 µM | GI50 [29] > 100 µM | GI50 [30] > 100 µM | GI50 [31] > 100 µM | GI50 [32] > 100 µM | GI50 [33] > 100 µM | GI50 [34] > 100 µM | GI50 [35] > 100 µM | GI50 [36] > 100 µM | GI50 [37] > 100 µM | GI50 [38] 38.2 µM | GI50 [39] > 100 µM | GI50 [40] > 100 µM | GI50 [41] > 100 µM | GI50 [42] > 100 µM | GI50 [43] > 100 µM | GI50 [44] > 100 µM | GI50 [45] > 100 µM | GI50 [46] > 100 µM | GI50 [47] > 100 µM | GI50 [48] > 100 µM | GI50 [49] > 100 µM | GI50 [50] > 100 µM | GI50 [51] > 100 µM | GI50 [52] > 100 µM | GI50 [53] > 100 µM | GI50 [54] > 100 µM | GI50 [55] > 100 µM | GI50 [56] > 100 µM | GI50 [57] > 100 µM | GI50 [58] > 100 µM
> 100 µM: TGI [1] | TGI [2] | TGI [3] | TGI [4] | TGI [5] | TGI [6] | TGI [7] | TGI [8] | TGI [9] | TGI [10] | TGI [11] | TGI [12] | TGI [13] | TGI [14] | TGI [15] | TGI [16] | TGI [17] | TGI [18] | TGI [19] | TGI [20] | TGI [21] | TGI [22] | TGI [23] | TGI [25] | TGI [26] | TGI [27] | TGI [28] | TGI [29] | TGI [30] | TGI [31] | TGI [32] | TGI [33] | TGI [34] | TGI [35] | TGI [36] | TGI [37] | TGI [38] | TGI [39] | TGI [40] | TGI [41] | TGI [42] | TGI [43] | TGI [44] | TGI [45] | TGI [46] | TGI [47] | TGI [48] | TGI [49] | TGI [50] | TGI [51] | TGI [52] | TGI [53] | TGI [54] | TGI [55] | TGI [56] | TGI [57] | TGI [58]
48.4 µM: TGI [24]
